Measurements as given in ChEMBL document CHEMBL1201862, “PubChem BioAssay data set” (2004).
“And” between values parts separate entries of the source, which are not always exact repeats. Identical values can stand only once. The source made the active and inactive calls. For most assays here, no stated cut-off is given here; in the data, actives have a measured EC50 and inactives only a lower limit.

Experiments:
[1] = Luminescence Cell-Based Dose Response HTS to Identify Activators of Luciferase Translation or Activity in H4 […] Cells. [Related pubchem assays: 1829 (Project Summary), 1814 (Primary HTS)]; type: functional
[2] = test system: H4; assay: Luminescence Cell-Based Dose Response HTS to Identify Activators of 5'UTR Stem-Loop Driven Prion Protein mRNA Translation in H4 Neuroglioblastoma Cells. [Related pubchem assays: 1829 (Project Summary), 1814 (Primary HTS)]; type: functional; conditions: Homo sapiens
[3] = Luminescence Cell-Based Dose Confirmation HTS to Identify Activators of 5'UTR Stem-Loop Driven Alpha-Synuclein mRNA Translation in H4 Neuroglioblastoma Cells. [Related pubchem assays: 1829 (Project Summary), 1814 (Primary HTS)]; type: functional
[4] = inhibitors of firefly luciferase expression or activity, dose response, H4 neuroglioma cells, luminescence (AID 1990); type: functional, cell-based
[5] = test system: Streptococcus; assay: Group A Streptococcus viability loss, dose response, counter-screen for streptokinase expression inhibitor project, luminescence, BacTiterGlo (AID 1915); type: functional, organism-based;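 further: potency for reduction of bacterial viability or growth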
[6] = test system: Streptococcus sp. 'group A'; assay: growth inhibition of control SK(-) GAS strain, dose response, counter-screen for streptokinase expression inhibitor project, luminescence, kanamycin, BacTiterGlo, confirmation (AID 1900); type: functional, organism-based
[7] = target: T1, Streptokinase A (Streptococcus pyogenes serotype M1, UniProt P10520); assay: S. pyogenes streptokinase expression inhibitors, potency, dose response, plasminogen activation absorbance, OD405 (AID 1914); type: functional, Streptococcus pyogenes M1 GAS;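 further: secreted streptokinase activity via plasminogen activation per viability signal from cell pellet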
T1 sequence (P10520 whole entry): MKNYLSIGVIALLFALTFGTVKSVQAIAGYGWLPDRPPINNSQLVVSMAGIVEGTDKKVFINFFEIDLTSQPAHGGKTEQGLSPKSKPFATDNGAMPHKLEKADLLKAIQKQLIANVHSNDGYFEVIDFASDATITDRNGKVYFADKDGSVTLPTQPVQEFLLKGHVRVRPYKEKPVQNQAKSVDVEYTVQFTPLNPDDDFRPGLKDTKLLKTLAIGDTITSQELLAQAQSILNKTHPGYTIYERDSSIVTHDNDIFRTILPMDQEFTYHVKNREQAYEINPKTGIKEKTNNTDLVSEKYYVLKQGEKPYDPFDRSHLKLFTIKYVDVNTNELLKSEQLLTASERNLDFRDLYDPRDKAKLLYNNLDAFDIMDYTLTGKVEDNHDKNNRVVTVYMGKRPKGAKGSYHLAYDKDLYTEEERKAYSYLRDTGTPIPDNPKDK

[8] = target: Cytochrome P450 2C9 (Homo sapiens, UniProt P11712)
Cytochrome P450 2C9, sequence (P11712 whole entry): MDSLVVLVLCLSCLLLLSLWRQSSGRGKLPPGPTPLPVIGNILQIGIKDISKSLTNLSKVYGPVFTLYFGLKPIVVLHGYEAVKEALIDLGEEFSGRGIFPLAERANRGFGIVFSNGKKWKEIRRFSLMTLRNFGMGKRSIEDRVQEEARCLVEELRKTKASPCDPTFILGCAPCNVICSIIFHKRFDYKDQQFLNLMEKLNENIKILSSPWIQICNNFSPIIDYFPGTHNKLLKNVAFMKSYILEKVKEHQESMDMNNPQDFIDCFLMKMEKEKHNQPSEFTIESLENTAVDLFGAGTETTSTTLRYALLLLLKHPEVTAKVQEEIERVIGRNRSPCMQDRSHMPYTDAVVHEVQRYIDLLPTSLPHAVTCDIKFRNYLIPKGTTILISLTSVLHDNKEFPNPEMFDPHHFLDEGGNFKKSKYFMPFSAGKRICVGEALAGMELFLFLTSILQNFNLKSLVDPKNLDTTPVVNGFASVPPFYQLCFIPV

[9] = target: T2, Cytochrome P450 1A2 (Homo sapiens, UniProt P05177);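 further: PubChem cytochrome P450 panel assay, CYP1A2 panel member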
T2 sequence (P05177 whole entry): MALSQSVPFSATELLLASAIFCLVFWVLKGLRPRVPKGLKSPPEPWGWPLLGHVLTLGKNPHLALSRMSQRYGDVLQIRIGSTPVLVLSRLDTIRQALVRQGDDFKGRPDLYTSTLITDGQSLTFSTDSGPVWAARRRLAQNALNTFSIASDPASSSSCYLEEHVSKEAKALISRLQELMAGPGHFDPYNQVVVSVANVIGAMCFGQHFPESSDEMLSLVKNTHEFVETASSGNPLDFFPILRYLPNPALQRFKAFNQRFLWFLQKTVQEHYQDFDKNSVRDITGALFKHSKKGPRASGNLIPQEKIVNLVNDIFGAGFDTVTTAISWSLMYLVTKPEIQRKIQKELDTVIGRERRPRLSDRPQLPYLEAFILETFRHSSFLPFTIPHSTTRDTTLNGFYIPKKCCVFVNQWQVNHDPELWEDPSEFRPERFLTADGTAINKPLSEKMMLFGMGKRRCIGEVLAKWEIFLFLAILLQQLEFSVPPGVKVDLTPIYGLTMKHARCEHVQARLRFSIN

[10] = target: Cytochrome P450 3A4 (Homo sapiens, UniProt P08684);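 further: CYP3A4 tested as one member of a cytochrome P450 panel screen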
Cytochrome P450 3A4, sequence (P08684 whole entry): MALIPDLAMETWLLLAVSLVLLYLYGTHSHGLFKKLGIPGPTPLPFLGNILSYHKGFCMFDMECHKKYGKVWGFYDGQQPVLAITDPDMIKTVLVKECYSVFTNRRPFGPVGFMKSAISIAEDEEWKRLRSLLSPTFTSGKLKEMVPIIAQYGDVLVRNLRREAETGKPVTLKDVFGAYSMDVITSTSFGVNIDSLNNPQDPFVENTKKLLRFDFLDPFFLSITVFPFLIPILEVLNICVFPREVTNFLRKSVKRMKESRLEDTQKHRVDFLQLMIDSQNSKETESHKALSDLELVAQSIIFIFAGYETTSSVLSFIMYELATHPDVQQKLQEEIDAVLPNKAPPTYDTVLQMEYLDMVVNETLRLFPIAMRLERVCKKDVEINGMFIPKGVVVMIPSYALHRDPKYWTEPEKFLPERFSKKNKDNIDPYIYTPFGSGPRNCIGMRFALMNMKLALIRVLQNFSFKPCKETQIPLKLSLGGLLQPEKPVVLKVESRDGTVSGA

[11] = target: T3, Corticotropin-releasing factor receptor 2/Corticotropin-releasing factor-binding protein (Homo sapiens, UniProt P24387+Q13324); assay: Dose Response confirmation of uHTS hits for small molecule antagonists of the CRF-binding protein and CRF-R2 receptor complex.; type: functional; conditions: read-out: IC50_Mean
T3 sequence (Q13324 whole entry): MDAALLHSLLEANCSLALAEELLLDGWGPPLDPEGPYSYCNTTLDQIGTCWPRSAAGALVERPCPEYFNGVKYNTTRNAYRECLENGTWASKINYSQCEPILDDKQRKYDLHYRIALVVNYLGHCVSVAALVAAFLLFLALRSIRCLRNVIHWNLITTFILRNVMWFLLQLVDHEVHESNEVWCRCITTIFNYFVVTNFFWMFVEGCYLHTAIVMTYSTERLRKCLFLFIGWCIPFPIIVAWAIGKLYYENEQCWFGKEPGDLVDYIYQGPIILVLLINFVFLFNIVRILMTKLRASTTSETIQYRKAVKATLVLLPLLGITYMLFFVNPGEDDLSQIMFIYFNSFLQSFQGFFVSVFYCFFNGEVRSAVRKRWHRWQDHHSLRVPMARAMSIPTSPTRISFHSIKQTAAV
T3 sequence (P24387 whole entry): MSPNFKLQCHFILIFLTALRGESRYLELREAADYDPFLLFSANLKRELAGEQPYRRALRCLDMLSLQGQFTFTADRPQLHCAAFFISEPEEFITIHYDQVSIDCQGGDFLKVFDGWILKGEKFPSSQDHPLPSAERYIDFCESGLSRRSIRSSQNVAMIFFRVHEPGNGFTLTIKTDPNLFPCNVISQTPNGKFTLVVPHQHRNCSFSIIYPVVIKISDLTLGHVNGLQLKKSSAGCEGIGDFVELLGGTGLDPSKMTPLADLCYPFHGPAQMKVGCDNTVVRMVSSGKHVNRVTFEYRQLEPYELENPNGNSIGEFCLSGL

[12] = target: T3, Corticotropin-releasing factor receptor 2/Corticotropin-releasing factor-binding protein; assay: activators of CRF receptor 2 with binding protein – uHTS hits, confirmation (AID 602473); type: functional; conditions: read-out: EC50_Mean
[13] = NIH-3T3 fibroblast cytotoxicity, dose response, cytotoxicity control, cell-based, fluorescence, Alamar Blue, secondary assay (AID 2327); type: functional;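 further: NIH-3T3 mouse fibroblasts cultured with fluconazole at 8 µg/mL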
[14] = target: Cytochrome P450 2D6 (Homo sapiens, UniProt P10635);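 further: CYP2D6 member of a cytochrome P450 panel assay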
Cytochrome P450 2D6, sequence (P10635 whole entry): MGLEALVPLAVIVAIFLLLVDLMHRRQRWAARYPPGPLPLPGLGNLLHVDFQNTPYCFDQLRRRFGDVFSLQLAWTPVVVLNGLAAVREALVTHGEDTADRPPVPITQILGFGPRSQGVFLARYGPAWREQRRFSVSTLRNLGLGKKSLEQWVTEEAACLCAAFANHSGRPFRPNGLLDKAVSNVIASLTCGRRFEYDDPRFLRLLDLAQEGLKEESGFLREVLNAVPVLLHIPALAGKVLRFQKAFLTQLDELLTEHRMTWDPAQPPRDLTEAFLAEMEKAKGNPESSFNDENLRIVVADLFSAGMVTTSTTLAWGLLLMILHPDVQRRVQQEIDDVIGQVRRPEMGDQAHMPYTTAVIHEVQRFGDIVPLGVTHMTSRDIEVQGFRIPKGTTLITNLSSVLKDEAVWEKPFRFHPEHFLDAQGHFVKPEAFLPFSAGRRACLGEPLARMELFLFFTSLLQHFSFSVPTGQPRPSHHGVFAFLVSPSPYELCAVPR

Q: For `O=C(c1ccccc1)N1CCN(CC#Cc2ccccc2)CC1`, which EC50 [1] is on record?
A: 9.34 µM (active)

Q: And the EC50 [2]?
A: 6.67 µM (active)

Q: What about the EC50 [3] of the same molecule?
A: 8.44 µM (active)

Q: For `CCCOc1ccc(C2=NNC(=O)CC2)cc1`, which EC50 [4] is on record?
A: < 0.1 µM (active)

Q: For `COc1ccccc1-c1nnc(NC(=O)c2ccc(S(=O)(=O)N(C)CC3CCCO3)cc2)o1` (stereo unspecified), which EC50 ([5]; Streptococcus) is on record?
A: 78.9 µM (active)

Q: What about the EC50 ([6]; Streptococcus sp. 'group A') of the same molecule?
A: 19.5 µM (active)

Q: What about the EC50 [7] of the same molecule?
A: > 150 µM (not active)

Q: With `CCOc1cc(NC(=O)C2CCCCC2)c(OCC)cc1NC(=O)c1ccco1` as the molecule, how does the AC50 [8] read?
A: 11.2 µM (inconclusive)

Q: And the AC50 [9]?
A: 2 µM (inconclusive)

Q: And the AC50 [10]?
A: 1.12 µM (inconclusive)

Q: Which results are given for `COc1cc(NC(=O)CSc2cc(C)c3cc(C)cc(C)c3n2)c(C(=O)O)cc1OC`?
A: IC50 [11]: > 47.1 µM (inactive); EC50 [12]: > 53 µM (inactive)

Q: Which results are given for `CCOC(=O)[C@@H]1[C@H]2COc3ccccc3[C@H]2N2C(=O)N(c3ccc(C(F)(F)F)cc3)C(=O)[C@]12C`?
A: EC50 ([5]; Streptococcus): > 150 µM (not active); EC50 ([6]; Streptococcus sp. 'group A'): 9.78 µM (active); EC50 [7]: 17 µM (inconclusive)

Q: Which EC50 ([5]; Streptococcus) does the source give for `O=C(Nc1cccc(-c2ccc(N3CCOCC3)nn2)c1)c1ccccc1Cl` here?
A: > 150 µM (not active)

Q: What about the EC50 ([6]; Streptococcus sp. 'group A') of the same molecule?
A: > 150 µM (not active)

Q: And the EC50 [7]?
A: > 150 µM (not active)

Q: For `CNP(=O)(Oc1ccccc1)OC12CC3CC(CC(C3)C1)C2` (stereo unspecified), which IC50 [11] is on record?
A: > 47.1 µM (inactive)

Q: And the EC50 [12]?
A: > 53 µM (inactive)

Q: For `NC(=O)N1CCC2(CC1)NC(=O)N(c1ccccc1)N2`, which EC50 [13] is on record?
A: > 150 µM (inconclusive)

Q: For `Cc1ccc2nc(SCC(=O)c3ccc(Cl)s3)[nH]c2c1`, which EC50 [7] is on record?
A: > 150 µM (not active)

Q: With `O=C(Nc1ccn(CCCNCc2ccc3c(c2)OCO3)c(=O)n1)OCc1ccccc1` as the molecule, how does the IC50 [11] read?
A: > 47.1 µM (inactive)

Q: What about the EC50 [12] of the same molecule?
A: > 53 µM (inactive)

Q: Which results are given for `Clc1ccccc1Nc1ncnc(-n2cccc2)n1`?
A: EC50 [1]: 1.7 µM (active); EC50 [2]: 6.97 µM (active); EC50 [3]: 0.153 µM (active)

Q: For `O=c1c(CCc2ccccc2)nc2cnc(N3CCNCC3)nc2n1Cc1ccc(F)cc1`, which AC50 [9] is on record?
A: 10 µM (inconclusive)

Q: And the AC50 [14]?
A: 25.1 µM (inconclusive)

Q: With `CCCC(=O)Nc1ccc(-c2nc3cc(C)c(C)cc3o2)c(O)c1` as the molecule, how does the IC50 [11] read?
A: > 47.1 µM (inactive)

Q: And the EC50 [12]?
A: > 53 µM (inactive)

Q: What does the source list for `CCOC(=O)c1c[nH]nc1N=C(S)Nc1ccc(Cl)cc1`?
A: IC50 [11]: > 47.1 µM (inactive); EC50 [12]: > 53 µM (inactive)

Q: Which results are given for `C=CCN1c2ccccc2[C@]23C[C@@H](C(=O)OC)N(C(=O)c4cc(C)oc4C)C2=NC(C(=O)OC)=C(C(=O)OC)[C@H]13`?
A: EC50 [1]: > 120 µM (not active); EC50 [2]: > 120 µM (not active); EC50 [3]: 9.07 µM (active)

Q: For `Cc1ccc(C2NC(=O)c3ccccc3N2)s1` (stereo unspecified), which EC50 [1] is on record?
A: 10.5 µM (active)

Q: What about the EC50 [2] of the same molecule?
A: 11.8 µM (active)

Q: What about the EC50 [3] of the same molecule?
A: > 120 µM (not active)

Q: Which EC50 [5] does the source give for `Cc1ccc(C(O)(C(=O)NNc2ccc3ccccc3n2)c2ccc(C)cc2)cc1` here?
A: 10.9 µM (active)

Q: What about the EC50 ([5]; Streptococcus) of the same molecule?
A: 12.1 µM (active)

Q: And the EC50 [6]?
A: 2.55 µM (active)

Q: And the EC50 ([6]; Streptococcus sp. 'group A')?
A: 3.72 µM (active)

Q: And the EC50 [7]?
A: > 150 µM (not active) and 8.85 µM (active)

Q: Which IC50 [11] does the source give for `O=C(O)c1ccc(/C=N/Nc2cccc(C(F)(F)F)c2)cc1` here?
A: 43.7 µM (active)

Q: What about the EC50 [12] of the same molecule?
A: > 53 µM (inactive)
